Source: patent US20260035385A1, “BENZO NITROGEN-CONTAINING HETEROAROMATIC RING DERIVATIVE AND USE THEREOF IN MEDICINE” (Xizang Haisco Pharmaceutical Co., Ltd., priority 2021, published 2026)
Structures can show the parent of a compound that is named as a salt. Values belong to the compound of their own block, whether it stands above or below them.

Experiments:
[1] = system: complement alternative pathway; test: Biological Test Example 2: complement alternative pathway inhibition, IBL alternative pathway kit, serum from healthy volunteers; format: biochemical, human; conditions: LPS-coated plate, 37 °C 1 h, read-out: IC50 for inhibiting alternative pathway
Protocol: The inhibitory effect of the compounds on the complement alternative pathway was detected using the IBL alternative pathway kit (COMPL AP330 RUO). Serum from healthy volunteers was collected and 1 portion was diluted with a buffer of 20 mM EDTA in gelatin (0.15 mM CaCl2, 141 mM NaCl, 4.5 mM MgCl2, 4.2 mM HEPES, and 0.1% gelatin at pH 7.4) to 50% (v/v), and 1 portion was diluted to 50% (v/v) with a buffer of 20 mM EGTA in gelatin. The compounds were prepared in DMSO to a working solution 100 times the final concentration. Before use, 50% of the above serum was diluted 1/18 with the AP diluent in the kit. 1 part of the compound working solution (v/v) or DMSO (positive control PC) was added to 99 parts of the diluted serum containing EGTA for pretreatment for 30 min, and 1 part of DMSO (v/v) was added to 99 parts of the diluted serum containing EDTA, as negative control (NC). The serum pretreated with the above compounds (or DMSO) was added at […] to the LPS-coated 96-well plate, incubated at 37° C. for 1 h, and the plate was washed 3 times with washing solution in the kit; the conjugated chromogenic substrate was added according to the instruction in the kit, and the absorbance was read at 405 nm with a microplate reader. The inhibitory activity of the compounds on alternative pathway was calculated using the following formula.
OD^CPD was the OD value when the inhibitor was added, OD^NC was the OD value of the negative control, and OD^PC was the OD value of the positive control.
Graphpad was used to perform nonlinear regression on the final concentrations and inhibition rates of the compounds to obtain the IC50 of the compounds for inhibiting the alternative pathway.

FB = FB (Homo sapiens, UniProt P00751); test: biochemical
[2] = Pharmacokinetic test in rats; format: in vivo, SD rats; conditions: for maximum plasma concentration in rats / oral bioavailability in rats / time to peak: compared with LNP023, in words; for bioavailability / Cmax / Tmax / half-life / AUC(0-t): male, SD, rat, plasma, po, i.g. (10 mg/kg); for bioavailability / Cmax / Tmax / half-life / AUC(0-t) / time to peak: rats; for AUC(0-t): read-out: AUC0-24 h
Protocol: Test objective: In this experiment, a single dose of each test compound was administered to SD rats intravenously and intragastrically, and the concentrations of the test compounds in plasma of rats were measured to evaluate the pharmacokinetic characteristics of the test compounds in rats.
Experimental animals: male SD rats, 200-250 g, 6-8 weeks old, 6 rats/compound, purchased from Chengdu Ddossy Experimental Animals Co., Ltd.
Experimental method: on the day of the test, 6 SD rats were randomly grouped according to their body weight. The animals were fasted with water available for 12 to 14 hours one day before the administration of a test compound, and were fed 4 hours after the administration.
Sampling: Before and after the administration, 0.15 mL of blood sample was drawn from the orbit under isoflurane anesthesia, and placed in an EDTAK2 centrifuge tube. Centrifugation was carried out at 5000 rpm at 4° C. for 10 min, and the plasma was collected.
Time points for plasma collection in IV&PO group: 0, 5 min, 15 min, 30 min, 1 h, 2 h, 4 h, 6 h, 8 h, and 24 h.
(§1) Before analysis and detection, all samples were stored at −60° C. The samples were analyzed quantitatively by LC-MS/MS.

[3] = Pharmacokinetic test of dogs; format: in vivo; conditions: male, beagle, dog, plasma, po, i.g. (5 mg/kg)
Protocol: (§2) Test objective: In this experiment, a single dose of test compounds was administered to beagle dogs intravenously and intragastrically, and the concentrations of the test compounds in plasma of the beagle dogs were measured to evaluate pharmacokinetic characteristics of the test compounds in the beagle dogs.
Experimental animals: Male beagle dogs, 8-11 kg, 1-3 years old, 6 dogs/compound. purchased from Beijing Marshall Biotechnology Co. Ltd.
Experimental method: on the day of the test, 6 beagle dogs were randomly grouped according to their body weights. The animals were fasted with water available for 14 to 18 hours one day before the administration of a test compound, and were fed 4 hours after the administration.
Sampling: Before and after the administration, 1.0 mL of blood was taken from the jugular veins or limb veins, and placed in an EDTAK2 centrifuge tube. Centrifugation was carried out at 5000 rpm at 4° C. for 10 min, and the plasma was collected.
(§3) Time points for plasma collection in IV&PO group: 0, 5 min, 15 min, 30 min, 1 h, 2 h, 4 h, 6 h, 8h, 10 h, 12h, and 24 h.
as §1

Caco2 permeability test = format: in vitro ADME; conditions: human, pH 7.4, Caco-2 monolayer, 2 μM, 2 h
Protocol: (§4) The experiment used a monolayer of Caco-2 cells incubated in triplicate in a 96-well Transwell plate. […] Acetonitrile containing internal standard was then added to precipitate the protein. […] The integrity of the cell monolayer after 2 h of incubation was assessed by leakage of Lucifer Yellow.

Caco-2 cells = test: Caco2 permeability test; format: in vitro ADME; conditions: Caco2, compared with the trifluoroacetate of LNP023, in words
Protocol: as §4

[4] = Pharmacokinetic experiment in monkeys; format: in vivo, cynomolgus monkeys; conditions: for bioavailability in monkeys / oral exposure in monkeys: compared with the trifluoroacetate of LNP023, in words; for bioavailability / AUC(0-t): male, cynomolgus monkey, plasma, po, monkeys, i.g. (5 mg/kg)
Protocol: as §2, with “to cynomolgus monkeys” for “to beagle dogs”, “the monkeys” for “the beagle dogs”, “the monkeys.” for “the beagle dogs.”
Experimental animals: Male cynomolgus monkeys, 3-5 kg, 3-6 years old, 6 monkeys/compound. Purchased from Suzhou Xishan Biotechnology Inc.
Experimental method: on the day of the test, 6 monkeys were randomly grouped according to their body weights. The animals were fasted with water available for 14 to 18 hours one day before the administration of a test compound, and were fed 4 hours after the administration.
Sampling: before and after the administration, 1.0 mL of blood was taken from the limb veins, and placed in an EDTAK2 centrifuge tube. Centrifugation was carried out at 5000 rpm at 4° C. for 10 min, and the plasma was collected.
as §3, §1

FB, sequence (P00751 260-764 limits assumed): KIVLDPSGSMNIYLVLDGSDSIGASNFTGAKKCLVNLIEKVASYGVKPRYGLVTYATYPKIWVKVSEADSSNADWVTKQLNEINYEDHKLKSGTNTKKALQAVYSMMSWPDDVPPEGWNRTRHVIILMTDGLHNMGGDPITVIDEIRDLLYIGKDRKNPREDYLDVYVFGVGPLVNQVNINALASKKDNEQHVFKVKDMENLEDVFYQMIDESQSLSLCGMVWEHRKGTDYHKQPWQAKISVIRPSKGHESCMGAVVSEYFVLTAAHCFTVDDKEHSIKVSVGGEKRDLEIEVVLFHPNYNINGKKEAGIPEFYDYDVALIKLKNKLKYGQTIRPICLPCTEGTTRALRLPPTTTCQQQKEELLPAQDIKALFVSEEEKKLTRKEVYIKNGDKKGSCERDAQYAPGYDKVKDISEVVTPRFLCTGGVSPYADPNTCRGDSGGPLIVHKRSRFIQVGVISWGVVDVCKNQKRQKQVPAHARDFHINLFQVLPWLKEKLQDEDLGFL
FB, sequence (Q91132 23-649 partner limits assumed): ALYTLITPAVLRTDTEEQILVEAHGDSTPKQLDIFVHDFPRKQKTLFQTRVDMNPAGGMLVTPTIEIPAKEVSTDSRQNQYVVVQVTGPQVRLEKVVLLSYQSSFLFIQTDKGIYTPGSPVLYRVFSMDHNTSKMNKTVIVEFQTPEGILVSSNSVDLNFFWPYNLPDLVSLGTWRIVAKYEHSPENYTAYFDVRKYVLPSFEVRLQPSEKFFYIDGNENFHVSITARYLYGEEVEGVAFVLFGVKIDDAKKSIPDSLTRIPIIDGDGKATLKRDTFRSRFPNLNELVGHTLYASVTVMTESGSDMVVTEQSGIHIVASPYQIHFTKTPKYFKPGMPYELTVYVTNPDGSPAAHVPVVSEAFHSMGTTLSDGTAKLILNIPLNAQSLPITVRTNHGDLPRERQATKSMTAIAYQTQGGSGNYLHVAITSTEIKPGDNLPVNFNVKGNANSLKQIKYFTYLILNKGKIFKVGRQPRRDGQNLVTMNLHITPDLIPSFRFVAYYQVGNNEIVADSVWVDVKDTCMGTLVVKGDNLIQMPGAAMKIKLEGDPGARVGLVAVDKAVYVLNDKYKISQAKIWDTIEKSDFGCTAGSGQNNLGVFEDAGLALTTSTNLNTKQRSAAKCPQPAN
FB, sequence (Q91132 733-984 partner limits assumed): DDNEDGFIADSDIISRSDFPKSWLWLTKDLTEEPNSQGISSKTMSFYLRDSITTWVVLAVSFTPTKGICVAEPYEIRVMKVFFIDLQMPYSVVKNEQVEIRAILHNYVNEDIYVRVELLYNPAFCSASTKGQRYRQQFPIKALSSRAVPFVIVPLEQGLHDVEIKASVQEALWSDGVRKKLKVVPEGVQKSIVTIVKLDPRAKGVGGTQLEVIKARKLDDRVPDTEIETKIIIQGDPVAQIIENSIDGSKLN
FB, sequence (Q91132 1264-1642 partner limits assumed): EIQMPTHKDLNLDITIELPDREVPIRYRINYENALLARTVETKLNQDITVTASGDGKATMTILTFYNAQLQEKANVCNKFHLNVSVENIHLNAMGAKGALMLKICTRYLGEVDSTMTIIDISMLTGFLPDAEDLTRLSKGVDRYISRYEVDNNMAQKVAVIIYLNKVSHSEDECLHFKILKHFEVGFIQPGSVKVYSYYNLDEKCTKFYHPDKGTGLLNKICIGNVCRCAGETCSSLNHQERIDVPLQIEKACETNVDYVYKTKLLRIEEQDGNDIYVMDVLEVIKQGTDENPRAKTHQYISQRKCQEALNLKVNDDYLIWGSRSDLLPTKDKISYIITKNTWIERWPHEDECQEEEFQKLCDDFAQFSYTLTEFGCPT

SMILES: COc1cc(C)c2[nH]ccc2c1CN1CCC(C2CCCC2)C[C@H]1c1ccc(C(=O)O)cc1 (single isomer, unassigned) [Ammonium of compound 11 (diastereomer 1)]
IC50 [1]: < 200 nM

SMILES: COc1cc(C)c2[nH]ccc2c1CN1CCN(C2CC2)CC1c1ccc(C(=O)O)cc1 (single isomer, unassigned) [Compound 27-1, 4-(4-cyclopropyl-1-((5-methoxy-7-methyl-1H-indol-4-yl)methyl)piperazin-2-yl)benzoic acid]
IC50 [1]: < 200 nM

SMILES: COc1cc(C)c2[nH]ccc2c1CN1CCC(C2CCC2)C[C@H]1c1ccc(C(=O)O)cc1 (single isomer, unassigned) [Formate of [compound 8 (diastereomer 1)]]
IC50 [1]: < 200 nM

SMILES: COCC1CCN(Cc2c(OC)cc(C)c3[nH]ccc23)[C@H](c2ccc(C(=O)O)cc2)C1 (single isomer, unassigned) [Trifluoroacetate of compound 1-a]
IC50 [1]: < 200 nM | IC50 (FB): < 500 nM

SMILES: COc1cc(C)c2[nH]ccc2c1CN1CCC2(CCCO2)C[C@H]1c1ccc(C(=O)O)cc1 (single isomer, unassigned) [Trifluoroacetate of compound 2-a (diastereomer 1)]
IC50 [1]: < 200 nM

SMILES: [2H]C([2H])([2H])Oc1cc(C)c2[nH]ccc2c1CN1CCC2(CCCO2)C[C@H]1c1ccc(C(=O)O)cc1 (single isomer, unassigned) [Trifluoroacetate of compound 6]
IC50 [1]: < 200 nM | IC50 (FB): < 500 nM

SMILES: COc1cc(C)c2[nH]ccc2c1CN1CCC(C2CC2)=C[C@H]1c1ccc(C(=O)O)cc1 [Ammonium salt of compound 12, (S)-4-(4-cyclopropyl-1-((5-methoxy-7-methyl-1H-indol-4-yl)methyl)-1,2,5,6-tetrahydropyridin-2-yl)benzoic acid]
IC50 [1]: < 200 nM

SMILES: COc1cc(C)c2[nH]ccc2c1CN1CC[C@H](OCC2CC2)C[C@H]1c1ccc(C(=O)O)cc1 [Compound 4, 4-((2S,4S)-4-(cyclopropylmethoxy)-1-((5-methoxy-7-methyl-1H-indol-4-yl)methyl)piperidin-2-yl)benzoic acid]
IC50 [1]: < 200 nM | IC50 (FB): < 500 nM

maximum plasma concentration in rats [2]: higher | oral bioavailability in rats [2]: higher | bioavailability [2]: 57.8% | Cmax [2]: 2240 ng/mL | Tmax [2]: 20 min | half-life [2]: 249 min | AUC(0-t) [2]: 7920 ng·h/mL | time to peak [2]: shorter | bioavailability [3]: 56.2% | AUC(0-t) [3]: 25300 ng·h/mL | half-life [3]: 533 min | efflux ratio at 2 h, 2 μM (Caco2 permeability test): 4.62 | Papp A→B at 2 h, 2 μM (Caco2 permeability test): 2.62 ×10⁻⁶ cm/s | Papp B→A at 2 h, 2 μM (Caco2 permeability test): 12.1 ×10⁻⁶ cm/s | efflux ratio (Caco-2 cells): lower | permeability (Caco-2 cells): better
SMILES: C#C[C@H]1CCN(Cc2c(OC)cc(C)c3[nH]ccc23)[C@H](c2ccc(C(=O)O)cc2)C1 [Compound 10 (diastereomer 1), 4-((2S)-4-ethynyl-1-((5-methoxy-7-methyl-1H-indol-4-yl)methyl)piperidin-2-yl)benzoic acid]
IC50 [1]: < 200 nM

maximum plasma concentration in rats [2]: higher | oral bioavailability in rats [2]: higher | bioavailability [2]: 65.5% | Cmax [2]: 1600 ng/mL | Tmax [2]: 35 min | half-life [2]: 205 min | AUC(0-t) [2]: 6030 ng·h/mL | time to peak [2]: shorter | bioavailability [3]: > 60% | AUC(0-t) [3]: 36100 ng·h/mL | half-life [3]: 436 min | bioavailability in monkeys [4]: higher | oral exposure in monkeys [4]: higher | bioavailability [4]: 70.5 ± 4.5% | AUC(0-t) [4]: 16600 ± 1070 ng·h/mL | efflux ratio at 2 h, 2 μM (Caco2 permeability test): 8.18 | Papp A→B at 2 h, 2 μM (Caco2 permeability test): 2.55 ×10⁻⁶ cm/s | Papp B→A at 2 h, 2 μM (Caco2 permeability test): 20.9 ×10⁻⁶ cm/s | efflux ratio (Caco-2 cells): lower | permeability (Caco-2 cells): better
SMILES: C#CCC1CCN(Cc2c(OC)cc(C)c3[nH]ccc23)[C@H](c2ccc(C(=O)O)cc2)C1 (stereo partly drawn) [Compound 13, 4-((2S)-1-((5-methoxy-7-methyl-1H-indol-4-yl)methyl)-4-(prop-2-yn-1-yl)piperidin-2-yl)benzoic acid]
IC50 [1]: < 200 nM

SMILES: COCCO[C@H]1CCN(Cc2c(OC)cc(C)c3[nH]ccc23)[C@H](c2ccc(C(=O)O)cc2)C1 [Trifluoroacetate of compound 3, 4-[(2S,4S)-1-[(5-methoxy-7-methyl-1H-indol-4-yl)methyl]-4-(2-methoxyethoxy)piperidin-2-yl]benzoic acid]
IC50 [1]: < 200 nM

SMILES: COc1cc(C)c2[nH]ccc2c1CN1CC[C@H](C2CC2)C[C@H]1c1ccc(C(=O)O)cc1 [Trifluoroacetate of compound 5-1 (diastereomer 2), 4-((2S)-4-cyclopropyl-1-((5-methoxy-7-methyl-1H-indol-4-yl)methyl)piperidin-2-yl)benzoic acid]
IC50 [1]: < 200 nM

maximum plasma concentration in rats [2]: higher | oral bioavailability in rats [2]: higher | bioavailability [2]: 72.1% | Cmax [2]: 1130 ng/mL | half-life [2]: 192 min | AUC(0-t) [2]: 9160 ng·h/mL | bioavailability [3]: 75.5% | AUC(0-t) [3]: 45400 ng·h/mL | half-life [3]: 906 min | bioavailability in monkeys [4]: higher | oral exposure in monkeys [4]: higher | bioavailability [4]: 98.3 ± 7.5% | AUC(0-t) [4]: 48300 ± 3660 ng·h/mL | Papp A→B at 2 h, 2 μM (Caco2 permeability test): 1.77 ×10⁻⁶ cm/s | Papp B→A at 2 h, 2 μM (Caco2 permeability test): 19.4 ×10⁻⁶ cm/s | permeability (Caco-2 cells): better
SMILES: [2H]C([2H])([2H])Oc1cc(C)c2[nH]ccc2c1CN1CC[C@H](C2CC2)C[C@H]1c1ccc(C(=O)O)cc1 [Trifluoroacetate of compound 7 (diastereomer 1), 4-((2S)-4-cyclopropyl-1-((5-(methoxy-d3)-7-methyl-1H-indol-4-yl)methyl)piperidin-2-yl)benzoic acid]
IC50 [1]: < 200 nM
